Consider seven compounds from patent US5589467A, “2,5',N6-trisubstituted adenosine derivatives” (Novo Nordisk A/S, priority 1993, dated 1996).

Molecules are shown by their SMILES. Like-named read-outs stand apart in the source and are kept apart here.

One experiment concerns A1 receptor. Particulars: literature, qualitative; cited from earlier work.
The nature of experiment [1]: DMCM-induced seizures in vivo. Particulars: read-out: DMCM-ind. seizures (ED50, mg/kg). An excerpt:
(§1) The methods both for the above in vitro examination of the compounds and the method used for DMCM-induced seizures in vivo are summarized in the European Journal of Pharmacology, 1993, 224, 221-228.

For a further experiment, the target named is T1, adenosine A2 receptor (Rattus norvegicus, UniProt P30543).
T1 construct: from tissue
T1 sequence (P30543 whole entry): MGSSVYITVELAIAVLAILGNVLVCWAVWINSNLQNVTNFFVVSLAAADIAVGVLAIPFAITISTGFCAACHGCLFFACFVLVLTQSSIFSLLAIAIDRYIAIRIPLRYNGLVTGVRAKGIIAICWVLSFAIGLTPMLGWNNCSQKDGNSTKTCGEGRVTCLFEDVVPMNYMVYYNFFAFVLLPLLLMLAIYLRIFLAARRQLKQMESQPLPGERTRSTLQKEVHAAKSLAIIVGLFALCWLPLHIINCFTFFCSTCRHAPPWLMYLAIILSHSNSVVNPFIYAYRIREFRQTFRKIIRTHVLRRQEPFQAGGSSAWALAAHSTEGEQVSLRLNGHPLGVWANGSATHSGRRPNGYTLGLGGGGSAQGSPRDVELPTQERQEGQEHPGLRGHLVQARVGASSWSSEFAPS
As to the kind of experiment: in vitro binding to adenosine A2 receptor ([3H]-CGS 21680).
Text: (§2) Evaluation of in vitro binding to adenosine A1 and A2 receptors.
as §1

The next experiment addresses T2, adenosine A1 receptor (Rattus norvegicus, UniProt P25099).
T2 construct: from tissue
T2 sequence (P25099 1-326): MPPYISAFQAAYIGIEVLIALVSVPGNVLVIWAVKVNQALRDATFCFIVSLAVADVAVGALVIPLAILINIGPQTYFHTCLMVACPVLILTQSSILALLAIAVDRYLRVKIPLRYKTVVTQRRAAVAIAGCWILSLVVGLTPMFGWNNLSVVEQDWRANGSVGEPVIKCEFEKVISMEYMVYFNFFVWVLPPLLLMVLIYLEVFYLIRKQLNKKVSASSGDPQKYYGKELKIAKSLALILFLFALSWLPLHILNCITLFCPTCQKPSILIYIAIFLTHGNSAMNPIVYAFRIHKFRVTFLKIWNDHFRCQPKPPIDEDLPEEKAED
As to the kind of experiment: in vitro binding to adenosine A1 receptor ([3H]-R-PIA). Particulars: for Ki: radioligand [3H]-R-PIA; for Ratio A2/A1: ratio of A2 to A1 receptor binding Ki.
Text: as §2, §1

Setting [2] is: ED50, DMCM-induced seizures in vivo.
[3] abbreviates: radioligand [3H]-CGS 21680, read-out: A2 Receptor Binding (Ki).

For `OC[C@H]1O[C@@H](n2cnc3c(NC4CCCC4)nc(Cl)nc32)[C@H](O)[C@@H]1O` [CCPA, 2-chloro-N-cyclopentyladenosine], in the experiment with A1 receptor, the “selectivity for the A1 receptor over the A2 receptor (in words)” value is recorded as “most selective for the A1 receptor over the A2 receptor”.
The term Ki denotes a measure of affinity in units of concentration, obtained from inhibition or displacement. Consider `OC[C@H]1O[C@@H](n2cnc3c(NC4CCCC4)ncnc32)[C@H](O)[C@@H]1O` [CPA, N-(cyclopentyl)adenosine, reference compound], for which the ED50 in experiment [1] is 0.2 mg/kg. The same compound displayed a Ki on adenosine A2 receptor of 192 nM.
Turning to `O[C@@H]1[C@H](O)[C@@H](CCl)O[C@H]1n1cnc2c(NN3CCCCC3)nc(Cl)nc21` [Example 1, 2,5'-Dichloro-5'-deoxy-N-(1-piperidinyl)adenosine], the figures for the Ki on adenosine A1 receptor and at adenosine A2 receptor (setting [3]) were 6.4 nM and 2740 nM, respectively. Moreover, at adenosine A1 receptor, the “Ratio A2/A1” value was 428. In addition, in experiment [1] (setting [2]), the ED50 worked out at 0.4 mg/kg.
For the compound `CN(C)Nc1nc(Cl)nc2c1ncn2[C@@H]1O[C@H](CCl)[C@@H](O)[C@H]1O` [Example 11, 2,5'-Dichloro-5'-deoxy-N-(dimethylamino)adenosine], on adenosine A1 receptor, the Ki was 11 nM and the “Ratio A2/A1” value came to 600. Also, in experiment [1] (setting [2]), the ED50 came to 4.7 mg/kg. Besides, the Ki at adenosine A2 receptor (setting [3]) came to 6600 nM.
Regarding `CONc1nc(Cl)nc2c1ncn2[C@@H]1O[C@H](CCl)[C@@H](O)[C@H]1O` [Example 12, 2,5'-Dichloro-5'-deoxy-N-methoxyadenosine], at adenosine A1 receptor, the Ki stood at 74 nM and the “Ratio A2/A1” value is on record as 63. In addition, the ED50 in experiment [1] (setting [2]) is 6.1 mg/kg. Further, the Ki on adenosine A2 receptor (setting [3]) was 4660 nM.
Taken in the same sequence, the figures for `O[C@@H]1[C@H](O)[C@@H](CF)O[C@H]1n1cnc2c(NN3CCCCC3)nc(Cl)nc21` [Example 18, 2-Chloro-5'-deoxy-5'-fluoro-N-(1-piperidinyl)adenosine] were 5.3 nM, 457, 1 mg/kg and 2420 nM.
For the compound `C[C@H](Cc1ccccc1)Nc1ncnc2c1ncn2[C@@H]1O[C@H](CO)[C@@H](O)[C@H]1O` [R-PIA, (R)-N-(1-phenyl-2-propyl)adenosine, reference compound], the ED50 in experiment [1] came to 0.5 mg/kg.
